How the values were obtained:
E. coli (CCUG #67180) = experiment: Antibacterial activity against isolates (Omnilog, Biolog redox dye); type: cell-based, Escherichia coli; conditions: Escherichia coli, ca-MH broth, 24 h, 37 °C
Procedure: (§1) The antibacterial activities of eight compounds (1, 3, 4, 6, 8, 10, 16, and 17) were tested against 10 different isolates of Gram-negative bacteria from human and other sources, two E. coli (CCUG #67180 and CCUG #17620/ATCC #25922, control strain), two K. pneumoniae (CCUG #58547 and CCUG #225T), two P. aeruginosa (CCUG #17619 and CCUG #59347), two A. baumannii (CCUG #57035 and CCUG #57250), E. cloacae (CCUG #6323T), and E. hormaechei (CCUG #58962) in a 96-well plate format. The compounds to test were 3-fold diluted in six steps in cation-adjusted Mueller-Hinton (ca-MH) broth to final concentrations spanning from 30 to 0.12 µM, i.e., a 1667–416,667 times dilution from the 50 mM stocks. Bacterial mass from the ten isolates grown overnight on horse blood or Mueller–Hinton agar plates was suspended in ca-MH and adjusted to a final inoculum cell density of ~5 × 10^5 CFU/mL. For all assays, Biolog redox dye A diluted 100× from the stock solution was used for measurements of all ten isolates (up to a total volume of 120 µL per well). All plates included one well per isolate with only inoculum and dye but no test compound (i.e., positive control) and one well per isolate with inoculum, dye and DMSO diluted 1667×, corresponding to the DMSO concentration in the wells with the highest concentration of test compound. All measurements were performed using the Omnilog microplate reader (Biolog, Hayward, CA, USA) where the 96-well plates were read at 15 min intervals for a total of 24 h at 37 °C.

[1] = test system: E. coli (CCUG #17620/ ATCC #25922); experiment: as above; type: cell-based, Escherichia coli; conditions: Escherichia coli; ca-MH broth, 24 h, 37 °C
Procedure: as §1

E. cloacae (CCUG #6323T) = experiment: as above; type: cell-based, Enterobacter cloacae; conditions: Enterobacter cloacae; ca-MH broth, 24 h, 37 °C
Procedure: as §1

[2] = test system: A. baumannii (CCUG #57250); experiment: as above; type: cell-based, Acinetobacter baumannii; conditions: Acinetobacter baumannii, ca-MH broth, 24 h, 37 °C
Procedure: as §1

[3] = test system: Enterobacter cloacae CCUG # 6323T; experiment: MIC of established antibiotics, micro-broth dilution; conditions: read-out: MIC Enterobacter cloacae CCUG 6323T
[4] = test system: Escherichia coli CCUG # 17620; experiment: as above; conditions: CCUG17620, read-out: MIC Escherichia coli CCUG 17620
[5] = test system: A. baumannii (CCUG #57035); experiment: Antibacterial activity against isolates (Omnilog, Biolog redox dye); type: cell-based, Acinetobacter baumannii; conditions: Acinetobacter baumannii, CCUG57035; ca-MH broth, 24 h, 37 °C
Procedure: as §1, with “The compounds to test were 3-fold diluted in six steps in cation-adjusted Mueller-Hinton (ca-MH) broth to final concentrations spanning from 30 to 0.12 µM, i.e., a 1667–416,667 times dilution from the 50 mM stocks.” left out

[6] = test system: Acinetobacter baumannii CCUG # 57250; experiment: MIC of established antibiotics, micro-broth dilution; conditions: CCUG57250, read-out: MIC Acinetobacter baumannii CCUG 57250
[7] = test system: E. hormaechei (CCUG #58962); experiment: Antibacterial activity against isolates (Omnilog, Biolog redox dye); type: cell-based, Enterobacter hormaechei; conditions: Enterobacter hormaechei, CCUG58962; ca-MH broth, 24 h, 37 °C
Procedure: as §1, with “The compounds to test were 3-fold diluted in six steps in cation-adjusted Mueller-Hinton (ca-MH) broth to final concentrations spanning from 30 to 0.12 µM, i.e., a 1667–416,667 times dilution from the 50 mM stocks.” left out

[8] = test system: K. pneumoniae (CCUG #225T); experiment: as above; type: cell-based, Klebsiella pneumoniae; conditions: Klebsiella pneumoniae; ca-MH broth, 24 h, 37 °C
Procedure: as §1

[9] = test system: P. aeruginosa (CCUG #59347); experiment: as above; type: cell-based, Pseudomonas aeruginosa; conditions: Pseudomonas aeruginosa, CCUG59347; ca-MH broth, 24 h, 37 °C
Procedure: as §1, with “The compounds to test were 3-fold diluted in six steps in cation-adjusted Mueller-Hinton (ca-MH) broth to final concentrations spanning from 30 to 0.12 µM, i.e., a 1667–416,667 times dilution from the 50 mM stocks.” left out

[10] = test system: Pseudomonas aeruginosa CCUG # 17619; experiment: MIC of established antibiotics, micro-broth dilution; conditions: CCUG17619, read-out: MIC Pseudomonas aeruginosa CCUG 17619
[11] = test system: Escherichia coli CCUG # 67180; experiment: as above; conditions: CCUG67180, read-out: MIC Escherichia coli CCUG 67180
[12] = test system: P. aeruginosa (CCUG #17619); experiment: Antibacterial activity against isolates (Omnilog, Biolog redox dye); type: cell-based, Pseudomonas aeruginosa; conditions: Pseudomonas aeruginosa, CCUG17619; ca-MH broth, 24 h, 37 °C
Procedure: as §1

[13] = test system: Acinetobacter baumannii CCUG # 57035; experiment: MIC of established antibiotics, micro-broth dilution; conditions: CCUG57035, read-out: MIC Acinetobacter baumannii CCUG 57035
[14] = test system: Klebsiella pneumoniae CCUG # 58547; experiment: as above; conditions: CCUG58547, read-out: MIC Klebsiella pneumoniae CCUG 58547
[15] = test system: Klebsiella pneumoniae CCUG # 225T; experiment: as above; conditions: read-out: MIC Klebsiella pneumoniae CCUG 225T
[16] = test system: Enterobacter hormaechei CCUG # 58962; experiment: as above; conditions: CCUG58962, read-out: MIC Enterobacter hormaechei CCUG 58962
[17] = test system: K. pneumoniae (CCUG #58547); experiment: Antibacterial activity against isolates (Omnilog, Biolog redox dye); type: cell-based, Klebsiella pneumoniae; conditions: Klebsiella pneumoniae, CCUG58547; ca-MH broth, 24 h, 37 °C
Procedure: as §1, with “The compounds to test were 3-fold diluted in six steps in cation-adjusted Mueller-Hinton (ca-MH) broth to final concentrations spanning from 30 to 0.12 µM, i.e., a 1667–416,667 times dilution from the 50 mM stocks.” left out

[18] = test system: Pseudomonas aeruginosa CCUG # 59347; experiment: MIC of established antibiotics, micro-broth dilution; conditions: CCUG59347, read-out: MIC Pseudomonas aeruginosa CCUG 59347

SMILES | MIC [3] | MIC [4] | MIC [6] | MIC [10] | MIC [11] | MIC [13] | MIC [14] | MIC [15] | MIC [16] | MIC [18] | further results
CO/N=C(\C(=O)N[C@@H]1C(=O)N2C(C(=O)O)=C(COC(C)=O)CS[C@H]12)c1csc(N)n1 [CTX, Cefotaxime, reference compound] | 9 to 36 µM | 0.25 to 0.5 µM | 36 µM | 36 µM | 280 µM | > 560 µM | 560 µM | 0.25 µM | 280 µM | > 560 µM | EC90 (E. coli (CCUG #67180); CCUG67180, 24 h): 183 µM; EC50 (E. coli (CCUG #67180); CCUG67180): 161 µM; EC50 [1]: 0.2 µM; EC90 [1]: 0.3 µM; EC50 (E. cloacae (CCUG #6323T)): 2.1 µM; EC90 (E. cloacae (CCUG #6323T)): 4.5 µM; EC90 ([2]; CCUG57250, 24 h): 48 µM; EC50 ([2]; CCUG57250): 23.4 µM; EC50 [5]: 430 µM; EC90 [5]: 681 µM; EC50 [7]: 78.4 µM; EC90 [7]: 158 µM; EC50 [8]: 0.2 µM; EC90 [8]: 0.3 µM; EC50 [9]: 1510 µM; EC90 [9]: 1680 µM; EC50 [12]: 13 µM; EC90 [12]: 18.4 µM; EC50 [17]: 324 µM; EC90 [17]: 478 µM
CC1(C)S[C@@H]2[C@H](NC(=O)[C@H](N)c3ccc(O)cc3)C(=O)N2[C@H]1C(=O)O [Amoxicillin] | 350 µM | 11 to 44 µM | 175 µM | 350 µM | 350 µM | 175 µM | 350 µM | 350 µM | 350 µM | 350 µM | –
C[C@@H](O)[C@H]1C(=O)N2C(C(=O)O)=C(S[C@@H]3CN[C@H](C(=O)N(C)C)C3)[C@H](C)[C@H]12 [Meropenem] | 0.6 to 1.2 µM | 0.16 µM | 40 µM | 2.6 to 5.2 µM | 10 to 20 µM | 335 µM | > 80 µM | 0.16 to 0.32 µM | 0.3 µM | 335 µM | –
